Measured values published in patent US10485844B2, “Methods for treating severe atopic dermatitis by administering an IL-4R inhibitor” (Regeneron Pharmaceuticals, Inc., priority 2016, dated 2019).
Marks after values point to notes of the source that are not given here.

Tests used:
[1] = test system: adult patients with severe AD; test: 16-week randomized placebo-controlled trial of dupilumab + TCS in adults with severe AD not adequately controlled with or intolerant to cyclosporine A (efficacy and safety); conditions: for % change from baseline in SCORAD / % change in baseline in weekly average of peak daily pruritus NRS / % patients with EASI-75 / % patients with IGA 0 or 1 and reduction from baseline of ≥2 points / Change from baseline in % BSA / Change from baseline in DLQI / Change from baseline in HADS / Change from baseline in POEM / % patients with EASI-75 for patients with prior CSA use / % patients with reduction of weekly average peak daily pruritus NRS ≥4 from baseline: week 16; for % patients with EASI-75 for patients with prior CSA use: N = 69; for % patients with reduction of weekly average peak daily pruritus NRS ≥4 from baseline: N = 94;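 as to all read-outs here: subcutaneous dosing after a 600 mg loading dose on day 1, with standardized medium-potency TCS background from day −14, compared against matching injectable placebo arm, 1:1:1 randomization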
Source text: The study comprises a 2-week screening period, a 2-week medium-potency TCS standardization period, a 16-week treatment period, and a 12-week safety follow up period. […] All patients receive concomitant medium-potency TCS as background concomitant therapy to reflect standard of care treatment of this severe population.
Starting on day −14, all patients initiate a standardized TCS treatment regimen, and continue the standardized medium-potency regimen through the end of the treatment period (week 16). During the 12-week follow-up period, they may continue to receive TCS at the discretion of the investigator, for intolerable AD disease activity.
Patients who continue to meet eligibility criteria at baseline (day 1) undergo assessments and are randomized in a 1:1:1 ratio to receive either once-weekly (qw) or every 2 week (q2w) subcutaneous (SC) injections of 300 mg dupilumab (following an SC loading dose of 600 mg on day 1), or matching injectable placebo, including the placebo for the loading dose. During weeks in which dupilumab is not administered (in the q2w regimen), patients receive injectable placebo.
Patients receive either qw SC injections of 300 mg dupilumab (following a loading dose of 600 mg on day 1), or q2w SC injections of 300 mg dupilumab (following a loading dose of 600 mg on day 1) during the 16-week treatment period. During weeks in which dupilumab is not administered (in the q2w regimen), patients receive injectable placebo.
The primary endpoint in the study is: the proportion of patients with Eczema Area and Severity Index (EASI) 75 (≥75% improvement from baseline) at week 16.
⋅ Proportion of patients with EASI 75 (75% improvement from baseline) at week 16 for patients with prior CSA use; ⋅ Proportion of patients with IGA 0 or 1 (on a 5-point scale) and a reduction from baseline of points at week 16; ⋅ Percent change from baseline to week 16 in the pruritus numerical rating scale (NRS); ⋅ Proportion of patients with improvement (reduction) of pruritus NRS at week 16; ⋅ Percent change from baseline to week 16 in the EASI score; ⋅ Change from baseline to week 16 in percent body surface area (BSA); ⋅ Percent change from baseline to week 16 in the SCORing Atopic Dermatitis (SCORAD); ⋅ Proportion of patients with SCORAD 50 (≥50% improvement from baseline) at week 16; ⋅ Percent change from baseline to week 16 in the Global Individual Signs Score (GISS) (erythema, infiltration/papulation, excoriations, lichenification); ⋅ Change from baseline to week 16 in the Dermatology Life Quality Index (DLQI); ⋅ Change from baseline to week 16 in the Patient Oriented Eczema Measure (POEM); ⋅ Change from baseline to week 16 in the Hospital Anxiety and Depression Scale (HADS); ⋅ Percent change from baseline to week 2 in the pruritus NRS; ⋅ Mean weekly dose of TCS through week 16
A variety of parameters are collected during the study to assess efficacy/effectiveness of dupilumab including measures of AD severity, use of concomitant treatment for AD, and patient reported measures of AD symptoms and QOL. Efficacy is assessed using pruritus NRS, pruritus categorical scale, POEM, HADS, DLQI, the European Quality of Life-5 Dimensions (EQ-5D), Patient Global Assessment of Disease, Patient Global Assessment of Treatment, Asthma Control Questionnaire (ACQ-5), the Sino-Nasal Outcome Test (SNOT-22), assessment of sick leave/missed school days, IGA, EASI, BSA of involvement of AD, GISS and SCORAD.

[2] = test system: adults with moderate-to-severe atopic dermatitis; test: Phase 3 open-label trial: dupilumab-naïve vs retreated patients (treatment interruption); conditions: for adverse events/100 patient years: to Wk52; for decrease in peak pruritus NRS score from baseline of parent study / patients who achieved EASI-75 (from baseline of parent study) / patients with Investigator's Global Assessment score of 0 or 1: Wk52
Experimental: This Example presents an interim analysis of an ongoing multicenter, open-label trial (NCT01949311) of dupilumab treatment for up to 3 yrs. Adults with moderate-to-severe atopic dermatitis (AD) were enrolled after participation in prior dupilumab trials. Safety and efficacy at Week [Wk] 52 for dupilumab naïve (previously unexposed) and retreated (>13 Wk gap between parent and open-label study) patients were evaluated.

[3] = 300 mg dupilumab q2w + TCS (N = 107), 16-week treatment period
[4] = 300 mg dupilumab q2w + TCS, Week 16
[5] = expected at the end of the study period

dupilumab: fully human anti-IL-4R antibody; heavy chain SEQ ID NO: 9, light chain SEQ ID NO: 10
DLQI score, mean change from baseline to Week 16 (±SE) ([1]; 300 mg dupilumab q2w + TCS): −9.7 (0.64)***^
DLQI score: Proportion of Patients with ≥4-point improvement at Week 16 ([1]; 300 mg dupilumab q2w + TCS): 85 (79.4)*** %
POEM score, mean change from baseline to Week 16 (±SE) ([1]; 300 mg dupilumab q2w + TCS): −11.7 (0.68)***
POEM score: Proportion of patients with ≥4-point improvement at Week 16 ([1]; 300 mg dupilumab q2w + TCS): 89 (83.2)*** %
Proportion of patients with DLQI 0 or 1 at Week 16 ([1]; 300 mg dupilumab q2w + TCS): 32 (29.9)** %
Atopic dermatitis (AE), n (%) [1, 3]: (7.5) %
Conjunctivitis allergic, n (%) [1, 3]: (15.0) %
Conjunctivitis, n (%) [1, 3]: (11.2) %
Headache, n (%) [1, 3]: (9.3) %
Nasopharyngitis, n (%) [1, 3]: (20.6) %
Number of patients with TEAEs, n (%) [1, 3]: (72.0) %
Rhinitis allergic, n (%) [1, 3]: (6.5) %
DLQI: Proportion of patients reporting “no impact” or “little impact”: Affected social, leisure activity [1, 4]: (91.6)*** %
DLQI: Proportion of patients reporting “no impact” or “little impact”: Caused any sexual difficulties [1, 4]: (93.5)*** %
DLQI: Proportion of patients reporting “no impact” or “little impact”: How embarrassed, self-conscious [1, 4]: (86.9)*** %
DLQI: Proportion of patients reporting “no impact” or “little impact”: How itchy, sore, painful, stinging [1, 4]: (83.2)*** %
DLQI: Proportion of patients reporting “no impact” or “little impact”: How much a problem is treatment [1, 4]: (89.7)*** %
DLQI: Proportion of patients reporting “no impact” or “little impact”: Influenced clothes you wear [1, 4]: (84.1)*** %
DLQI: Proportion of patients reporting “no impact” or “little impact”: Interfered shopping, home, yard [1, 4]: (93.5)*** %
DLQI: Proportion of patients reporting “no impact” or “little impact”: Made it difficult to do any sports [1, 4]: (90.7)*** %
DLQI: Proportion of patients reporting “no impact” or “little impact”: Prevented/problem at working or studying [1, 4]: (91.6)*** %
DLQI: Proportion of patients reporting “no impact” or “little impact”: Problem partner, friends, relative [1, 4]: (95.3)*** %
POEM: Proportion of patients reporting ‘no days’ or ‘1-2 days’: Last week days been weeping/oozing [1, 4]: (87.9)*** %
POEM: Proportion of patients reporting ‘no days’ or ‘1-2 days’: Last week days skin been bleeding [1, 4]: (84.1)*** %
POEM: Proportion of patients reporting ‘no days’ or ‘1-2 days’: Last week days skin been cracked [1, 4]: (75.7)*** %
POEM: Proportion of patients reporting ‘no days’ or ‘1-2 days’: Last week days skin been flaking off [1, 4]: (65.4)*** %
POEM: Proportion of patients reporting ‘no days’ or ‘1-2 days’: Last week days skin been itchy [1, 4]: (45.8)*** %
POEM: Proportion of patients reporting ‘no days’ or ‘1-2 days’: Last week days skin felt dry or rough [1, 4]: (59.8)*** %
POEM: Proportion of patients reporting ‘no days’ or ‘1-2 days’: Last week nights sleep been disturbed [1, 4]: (83.2)*** %
SCORAD VAS sleep loss, LS mean percent change from baseline to Week 16 (±SE) ([1]; 300 mg dupilumab q2w + TCS, n = 98): −61.2 (34.38)* percent
SCORAD VAS sleep loss, LS mean change from baseline to Week 16 (±SE) ([1]; 300 mg dupilumab q2w + TCS, n = 106): −3.0 (0.25)***^
Pruritus NRS: Proportion of patients with ≥3-point improvement at Week 16 ([1]; 300 mg dupilumab q2w + TCS, patients with baseline peak pruritus NRS ≥3): 56/99 (56.6)*** %
Pruritus NRS: Proportion of patients with ≥4-point improvement at Week 16 ([1]; 300 mg dupilumab q2w + TCS, patients with baseline peak pruritus NRS ≥4): 43/94 (45.7)*** %
deaths during the study ([1]; all treatment groups): No deaths
skin infections vs placebo ([1]; combined dupilumab-treated groups): fewer skin infections
% change in EASI score from baseline to week 16 ([1]; dupilumab 300 mg q2w + TCS): −79.8%
Mean weekly dose of TCS use during the treatment period ([1]; dupilumab 300 mg q2w + TCS): 15.0
% change from baseline in SCORAD ([1]; dupilumab 300 mg q2w + TCS): −58.3%
% change in baseline in weekly average of peak daily pruritus NRS ([1]; dupilumab 300 mg q2w + TCS): −53.9%
% patients with EASI-75 ([1]; dupilumab 300 mg q2w + TCS): 62.6%
% patients with IGA 0 or 1 and reduction from baseline of ≥2 points ([1]; dupilumab 300 mg q2w + TCS): 40.2%
Change from baseline in % BSA ([1]; dupilumab 300 mg q2w + TCS): −39.2 % BSA
Change from baseline in DLQI ([1]; dupilumab 300 mg q2w + TCS): −9.6
Change from baseline in HADS ([1]; dupilumab 300 mg q2w + TCS): −6.1
Change from baseline in POEM ([1]; dupilumab 300 mg q2w + TCS): −11.9
% patients with EASI-75 for patients with prior CSA use ([1]; dupilumab 300 mg q2w + TCS): 58.0%
% patients with reduction of weekly average peak daily pruritus NRS ≥4 from baseline ([1]; dupilumab 300 mg q2w + TCS): 45.7%
% change in EASI score from baseline to week 16 ([1]; dupilumab 300 mg qw + TCS): −78.2%
Mean weekly dose of TCS use during the treatment period ([1]; dupilumab 300 mg qw + TCS): 17.5
% change from baseline in SCORAD ([1]; dupilumab 300 mg qw + TCS): −62.4%
% change in baseline in weekly average of peak daily pruritus NRS ([1]; dupilumab 300 mg qw + TCS): −51.7%
% patients with EASI-75 ([1]; dupilumab 300 mg qw + TCS): 59.1%
% patients with IGA 0 or 1 and reduction from baseline of ≥2 points ([1]; dupilumab 300 mg qw + TCS): 39.1%
Change from baseline in % BSA ([1]; dupilumab 300 mg qw + TCS): −37.5 % BSA
Change from baseline in DLQI ([1]; dupilumab 300 mg qw + TCS): −8.9
Change from baseline in HADS ([1]; dupilumab 300 mg qw + TCS): −5.2
Change from baseline in POEM ([1]; dupilumab 300 mg qw + TCS): −11.4
% patients with EASI-75 for patients with prior CSA use ([1]; dupilumab 300 mg qw + TCS): 56.5%
% patients with reduction of weekly average peak daily pruritus NRS ≥4 from baseline ([1]; dupilumab 300 mg qw + TCS): 40.4%
Injection site reactions vs placebo ([1]; dupilumab groups, higher rate in 300 mg qw than 300 mg q2w, no severe ISRs): more common
tolerability / safety profile ([1]; dupilumab plus concomitant TCS, 16-week treatment period): generally well tolerated
incidence of conjunctivitis vs placebo ([1]; dupilumab-treated groups, more events in 300 mg Q2W than 300 mg QW): higher incidence
improvement in at least one AD-associated parameter as compared to placebo [1, 5]: significant improvement
less TCS used than placebo [1, 5]: up to 50%
Serious adverse events ([1]; in each treatment group): 2 events
serious AEs/100PY ([2]; dupilumab-naïve patients): 11.7 serious AEs/100PY
treatment discontinuations due to AEs ([2]; dupilumab-naïve patients): 2.6%
adverse events/100 patient years ([2]; dupilumab-naïve patients (n=116)): 432.5 AEs/100PY
deaths ([2]; naïve and retreated patients): no deaths
decrease in peak pruritus NRS score from baseline of parent study ([2]; naïve patients): 64.9%
patients who achieved EASI-75 (from baseline of parent study) ([2]; naïve patients): 73.3%
patients with Investigator's Global Assessment score of 0 or 1 ([2]; naïve patients): 49.1%
serious AEs/100PY ([2]; retreated patients): 5.4 serious AEs/100PY
treatment discontinuations due to AEs ([2]; retreated patients): 2.8%
adverse events/100 patient years ([2]; retreated patients (>13 Wk gap; n=290)): 371.0 AEs/100PY
decrease in peak pruritus NRS score from baseline of parent study ([2]; retreated patients): 60.6%
patients who achieved EASI-75 (from baseline of parent study) ([2]; retreated patients): 80.7%
patients with Investigator's Global Assessment score of 0 or 1 ([2]; retreated patients): 50.7%
